Data set [1] relates to SARS-CoV-2. It is filed as in vivo, Syrian hamster. The following applies: for Activity in SARS-CoV-2 Hamster Model: doses, frequency, duration as in Table 1.
The test system of data set [2] is SARS-CoV-2 in Vero cells.
The test system of data set [3] is SARS-CoV-2 in Calu-3 cells.
Data set [4] concerns SARS-CoV-2. The following applies: read-out: SARS-CoV-2 EC50, cited from earlier work.
Data set [5] can be described thus: in vitro. The following applies: African green monkey, Selectivity Index (Vero cells), T: toxicity observed.
The conditions of data set [6]: cited from earlier work.
The nature of data set [7]: Plasma protein binding, hamster. The following applies: hamster, plasma.
Data set [8] relates to SARS-CoV-2 in Vero cells. Description: microbe, parasite or virus in culture. The following applies: Severe acute respiratory syndrome coronavirus 2, Vero.
The test system of data set [9] is SARS-CoV-2 in Calu-3 cells. Nature of the data set: microbe, parasite or virus in culture. The following applies: Severe acute respiratory syndrome coronavirus 2, Calu-3, read-out: Calu-3 cells Average IC50.
Data set [10] can be described thus: Population PK model from satellite PK studies in hamster. The following applies: hamster of the study's median weight (80-131 g).
Data set [11] can be described thus: Binding to antiviral assay medium by Rapid Equilibrium Dialysis. The following applies: bovine. For orientation: Equilibrium dialysis compares concentrations on both sides of a semipermeable membrane.
For data set [12] the following is noted: female, LGV Golden Syrian, hamster, in vivo.
Data set [13] is described as follows: in vitro. The following applies: hamster, plasma.
For data set [14], the system named is SARS-CoV-2 in A549-Dual hACE2-TMPRSS2 cells. On the set-up: method as in Abdelnabi et al., 2022 [60]. The following applies: ref Abdelnabi et al., 2022 [60]; cited from earlier work.
Where [15] appears, read: read-out: VERO cells Average IC50, With Pgp pump inhibitor, 2 μM CP-100356, * one replicate only.
Where [16] appears, read: read-out: VERO cells Average IC50, Without Pgp pump inhibitor, * one replicate only.

Read-outs that look alike come from different tables or passages of the source.

The EC50 is the concentration at which the effect is half-maximal. As usually defined, the fraction unbound is the share of the substance not bound to proteins or other matrix. The low end stands for extensive binding, the high end for weak binding. What is called IC50 is the concentration at which inhibition is half-maximal. `COC(=O)N[C@H](C(=O)N1CCC[C@H]1c1nc(-c2ccc(-c3ccc(-c4c[nH]c([C@@H]5CCCN5C(=O)[C@@H](NC(=O)OC)C(C)C)n4)cc3)cc2)c[nH]1)C(C)C` [Daclatasvir, daclatasvir]: the “Activity in SARS-CoV-2 Hamster Model” value is on record as “No” in the data set with SARS-CoV-2 [1] and “no activity” in the data set with SARS-CoV-2 [1] (listed as daclatasvir). Further, the “Activity In Vitro; Potency EC50 or IC50 < 10 µM; Vero Cells” value (shortened to “Activity In Vitro … Vero Cells”) with SARS-CoV-2 in Vero cells [2] (in the presence of a P-glycoprotein inhibitor (^Pgp)) is “Yes (Potency EC50 or IC50 < 10 µM)”. Besides, the “Activity In Vitro; Potency EC50 or IC50 < 10 µM; Calu-3 Cells” value (from here on “Activity In Vitro … Calu-3 Cells”) in data set [3] is “No (Potency EC50 or IC50 < 10 µM)”. Further, the EC50 with SARS-CoV-2 [4] (host cell Calu-3) was 1.1 µM; in the data set with SARS-CoV-2 [4] (host cell HuH-7), 0.6 µM; with SARS-CoV-2 [4] (host cell Vero, ref 26), 0.8 µM. The selectivity ratio was more than 6.6 in the data set “in vitro [5]” (With Pgp pump inhibitor) and more than 2.5 in “in vitro [5]” (Without Pgp pump inhibitor). In addition, in [6] (literature, ref 61 (N-desethylamodiaquine), 62 (atazanavir), 63 (daclatasvir), 64 (favipiravir), 65 (ivermectin), 66 (tizoxanide), 67 (sofosbuvir)), the “Fraction unbound in plasma, human” value is given as 1%. The fraction unbound is 0.055 in data set [7] and 0.209 in [11]. In addition, the IC50 in the data set with SARS-CoV-2 in Vero cells [8] (setting [15]) amounted to 7.6 µM; with SARS-CoV-2 in Vero cells [8] (setting [16]), 19.8 µM; in data set [9], 24.4 µM. Also, in data set [10], the “CL/F, elimination clearance, population estimate (%RSE)” value is listed as 239 (19.6) mL/h. In addition, the “KA, absorption rate constant, population estimate (%RSE)” value in data set [10] is 0.415 (5.84) h-1. Also, the “Q/F (Q1/F), inter-compartment clearance, population estimate (%RSE)” value in data set [10] is 33.4 (25.5) mL/h. The “VC/F, central volume of distribution, population estimate (%RSE)” value in [10] is given as 86.3 (27.0) mL. The “VP/F, peripheral volume of distribution, population estimate (%RSE)” value in data set [10] was 438 (25.6) mL.

On to `NC(=O)c1nc(F)c[nH]c1=O` [Favipiravir, favipiravir], for which the “Activity in SARS-CoV-2 Hamster Model” value was “Yes” in the data set on SARS-CoV-2 [1] and “demonstrated in vivo efficacy” in the data set on SARS-CoV-2 [1] (listed as favipiravir). In addition, the “Activity In Vitro … Vero Cells” value with SARS-CoV-2 in Vero cells [2] is given as “No (Potency EC50 or IC50 < 10 µM)”. The “Activity In Vitro … Calu-3 Cells” value in data set [3] is given as “No (Potency EC50 or IC50 < 10 µM)”. Further, the “CL/F, elimination clearance, population estimate (%RSE)” value in data set [12] is reported as 58.2 (6.06) mL/h. Also, the “KA, absorption rate constant, population estimate (%RSE)” value in [12] is given as 0.774 (7.71) h-1. The “Q/F (Q1/F), inter-compartment clearance, population estimate (%RSE)” value in data set [12] is listed as 1.80 (12.7) mL/h. The “VC/F, central volume of distribution, population estimate (%RSE)” value in [12] is 11.7 (14.7) mL. Further, the “VP/F, peripheral volume of distribution, population estimate (%RSE)” value in [12] is 11.6 (8.7) mL. The EC50 is 446 µM with SARS-CoV-2 [4] (host cell Vero E6, ref 17); more than 100 µM in the data set with SARS-CoV-2 [4] (host cell Vero E6, ref 31); more than 50 µM in the data set with SARS-CoV-2 [4] (host cell Vero E6, ref 32); 117 µM in the data set on SARS-CoV-2 [4] (host cell Vero E6, ref 34); 62 µM in the data set on SARS-CoV-2 [4] (host cell Vero E6, ref 35); more than 500 µM in the data set with SARS-CoV-2 [4] (host cell Vero, ref 25). Further, the EC50 in the data set with SARS-CoV-2 [4] (host cell Vero, ref 36) is more than 20 µM; in the data set on SARS-CoV-2 [4] (host cell VeroE6/TMPRSS2), more than 64 µM. Besides, the values for the fraction unbound (in the data set “in vitro [13]”; in [11]) were 0.821 and 0.993, respectively. Moreover, the “Fraction unbound in plasma, human” value in data set [6] (human, plasma) was 46%. The IC50 (in the data set on SARS-CoV-2 in Vero cells [8] (setting [15]); in the data set with SARS-CoV-2 in Vero cells [8] (setting [16]); in [9]) was more than 50 µM each time.

As to `CC(C)(C)[C@H](NC(=O)C(F)(F)F)C(=O)N1C[C@H]2[C@@H]([C@H]1C(=O)N[C@H](C#N)C[C@@H]1CCNC1=O)C2(C)C` [Nirmatrelvir, nirmatrelvir], the “Activity in SARS-CoV-2 Hamster Model” value is on record as “Yes” in the data set on SARS-CoV-2 [1] and “demonstrated in vivo efficacy” with SARS-CoV-2 [1] (listed as nirmatrelvir). In the data set with SARS-CoV-2 [1] (hamster, in vivo), the “Lung TCID50 of SARS-CoV-2 in the hamster model” value is reported as “significant reduction”. In addition, in the data set on SARS-CoV-2 in Vero cells [2], the “Activity In Vitro … Vero Cells” value is listed as “Yes (Potency EC50 or IC50 < 10 µM)”. In addition, in data set [3], the “Activity In Vitro … Calu-3 Cells” value is reported as “Yes (Potency EC50 or IC50 < 10 µM)”. Further, in data set [14], the EC50 was 0.11 µM. Besides, the fraction unbound came out at 0.621 in data set [7] and 0.898 in data set [11]. The concentration for half-maximal inhibition (IC50) is less than 0.05 µM with SARS-CoV-2 in Vero cells [8] (setting [15]), 3.4 µM in the data set on SARS-CoV-2 in Vero cells [8] (setting [16]) and 0.3 µM in [9].

Values taken from publication PMC9460261, “Need for a Standardized Translational Drug Development Platform: Lessons Learned from the Repurposing of Drugs for COVID-19” (Microorganisms, 2022).
